Results: patent US20080132539A1, “Hydroxamic Acid Derivative And Age Generation Inhibitor Containing The Derivative” (priority 2003, published 2008)

Assays:
Format in all cases: biochemical
[1] = test system: Maillard reaction (lysozyme / fructose, dimer formation); assay: Maillard reaction-inhibiting effects (lysozyme dimer formation with fructose, SDS-PAGE densitometry); conditions: 10 mg/mL lysozyme, 200 mM fructose, pH 7.4, 37° C., 4 days, dimer formation inhibition rate
Method: This Example examined Maillard reaction-inhibiting effects using, as test compounds, the compounds produced in the above-described Examples and the commercially available substances arginine hydroxamate (Compound No. 111), tyrosine hydroxamate (Compound No. 112), and tryptophan hydroxamate (Compound No. 113). More specifically, 10 mg/mL lysozyme, 200 mM fructose, and each of the above-described test compounds dissolved in a 0.4 mM sodium phosphate buffer (pH 7.4) so as to provide a concentrations of 0.1, 0.3, 1, or 3 mM were incubated at 37° C. for 4 days. After the incubation, the samples were subjected to SDS-PAGE, stained with Coomassie Brilliant Blue R-250, and quantitated for the formed dimmers using a densitometer. The Maillard reaction-inhibiting activity was defined as the dimmer formation inhibition rate of a test compound calculated on the basis that the amount of dimmer is 100% in the absence of the test compound, using, as blank, the amount of dimer in the absence of fructose and the test compound.

[2] = Methyl glyoxal-trapping activity test (DMB derivatisation, HPLC); conditions: 0.02 mM methyl glyoxal, 0.2 mM test compound, PBS, 37° C., 30 minutes
Method: (§1) In 0.2 mL of PBS were incubated 0.02 mM of methyl glyoxal and 0.2 mM of test compound at 37° C. for 30 minutes. Subsequently, a volume of 5 mM DMB (1,2-diamino-4,5-methylenedioxy benzene) solution equivalent to 10 μL of the incubation sample was added, followed by further incubation at 4° C. for 7 hours to react the remaining methyl glyoxal with DMB. After the end of reaction, a 0.4 M phosphate buffer solution (pH 7.2) was added for neutralization, followed by quantitating the modified product of methyl glyoxal-DMB using HPLC.
(§2) HPLC having a YMC-Pack Pro C18 column (φ4.6 mm×150 mm) and employing 5 mM sodium phosphate buffer (pH 7.4)-25% acetonitrile as a mobile phase was used at a flow rate of 0.7 mL/min to determine fluorescence strength at Ex352 nm and Em385 nm.
The proportion of methyl glyoxal trapped by the test compound was calculated as % trapping activity, based on the quantitative value of the total modified product of methyl glyoxal-DMB in the absence of the test compound.

[3] = Glyoxal-trapping activity test (DMB derivatisation, HPLC); conditions: 0.02 mM glyoxal, 0.2 mM test compound, PBS, 37° C., 30 minutes
Method: as §1, with “of” for “of methyl”
as §2
The proportion of glyoxal trapped by the test compound was calculated as % trapping activity, based on the quantitative value of the total modified product of glyoxal-DMB in the absence of the test compound.

[4] = test compound concentration 0.1 mM
[5] = test compound concentration 0.3 mM
[6] = test compound concentration 1 mM
[7] = test compound concentration 3 mM

Structure (SMILES) | Maillard reaction-inhibiting activity (%) [1, 4] | Maillard reaction-inhibiting activity (%) [1, 5] | Maillard reaction-inhibiting activity (%) [1, 6] | Maillard reaction-inhibiting activity (%) [1, 7] | Methyl-glyoxal-trapping activity (% trapping) [2] | Glyoxal-trapping activity (% trapping) [3]
CCCCCn1cc(CC(N)C(=O)NO)c2ccccc21 (racemic) [Compound No. 105, (RS)-2-amino-3-(1-pentyl-1H-indol-3-yl)-N-hydroxypropionamide] | 95% | 97% | 98% | 98% | 93.3 ± 0.8 % trapping | 69.7 ± 1.1 % trapping
N#Cc1ccc(Cn2cc(CC(N)C(=O)NO)c3ccccc32)cc1 (racemic) [Compound No. 107, (RS)-2-amino-3-[1-(4-cyanobenzyl)-1H-indol-3-yl]-N-hydroxypropionamide] | 101% | 100% | 101% | 101% | 87.3 ± 0.5 % trapping | 69.8 ± 1.2 % trapping
N=C(N)NN [Aminoguanidine, reference compound] | −3% | −5% | 7% | 26% | 52.8 ± 1.5 % trapping | 32.9 ± 3.8 % trapping
CC(C)(C)c1ccc(Cn2c(CC[C@H](N)C(=O)NO)nc3ccccc32)cc1 [Compound No. 74, (S)-2-amino-N-hydroxy-4-[1-(4-t-butylbenzyl)-1H-benzimidazol-2-yl]butyramide] | 98% | 99% | 101% | 100% | – | –
N[C@@H](CCc1nc2ccccc2n1C1CCCCC1)C(=O)NO [Compound No. 75, (S)-2-amino-N-hydroxy-4-(1-cyclohexyl-1H-benzimidazol-2-yl)butyramide] | 82% | 100% | 100% | 100% | – | –
N[C@@H](CCc1nc2ccccc2n1C1CCOCC1)C(=O)NO [Compound No. 76, (S)-2-amino-N-hydroxy-4-[1-(tetrahydropyran-4-yl)-1H-benzimidazol-2-yl]butyramide] | 13% | 65% | 95% | 98% | – | –
Cc1cc2nc(CC[C@H](N)C(=O)NO)n(Cc3ccc(C(C)(C)C)cc3)c2cc1C [Compound No. 85, (S)-2-amino-4-[1-(4-t-butylbenzyl)-5,6-dimethyl-1H-benzimidazol-2-yl]-N-hydroxybutyramide] | 99% | 100% | 98% | 98% | – | –
CCCn1c(CC[C@H](N)C(=O)NO)nc2cc(C)c(C)cc21 [Compound No. 94, (S)-2-amino-4-(5,6-dimethyl-1-propyl-1H-benzimidazol-2-yl)-N-hydroxybutyramide] | 12% | 83% | 100% | 102% | – | –
CCCn1c(CC[C@H](N)C(=O)NO)nc2cc(Cl)c(Cl)cc21 [Compound No. 95, (S)-2-amino-4-(5,6-dichloro-1-propyl-1H-benzimidazol-2-yl)-N-hydroxybutyramide] | 102% | 106% | 107% | 108% | 84.2 ± 0.6 % trapping | 65.7 ± 2.2 % trapping
CCCCCn1c(CC[C@H](N)C(=O)NO)nc2cc(Cl)c(Cl)cc21 [Compound No. 96, (S)-2-amino-4-(5,6-dichloro-1-pentyl-1H-benzimidazol-2-yl)-N-hydroxybutyramide] | 99% | 103% | 104% | 104% | – | –
CCCn1c(CC[C@H](NCC2CCCCC2)C(=O)NO)nc2ccccc21 [Compound No. 97, (S)-2-(cyclohexylmethyl-amino)-4-(1-propyl-1H-benzimidazol-2-yl)-N-hydroxybutyramide] | 96% | 98% | 98% | 98% | – | –
CC(C)(C)c1ccc(COc2ccc(C[C@H](N)C(=O)NO)cc2)cc1 [Compound No. 99, (S)-2-amino-3-[4-(4-t-butylbenzyloxy)phenyl]-N-hydroxypropionamide] | 95% | 95% | 99% | 101% | – | –
N[C@@H](Cc1ccc(OCc2ccccc2-c2ccccc2)cc1)C(=O)NO [Compound No. 100, (S)-2-amino-3-[4-(2-phenylbenzyloxy)phenyl]-N-hydroxypropionamide] | 93% | 96% | 96% | 97% | – | –
N[C@@H](Cc1ccc(OCc2ccc([N+](=O)[O-])cc2)cc1)C(=O)NO [Compound No. 101, (S)-2-amino-3-[4-(4-nitrobenzyloxy)phenyl]-N-hydroxypropionamide] | 102% | 102% | 102% | 98% | – | –
N[C@@H](Cc1ccc(OCc2ccc(F)cc2F)cc1)C(=O)NO [Compound No. 102, (S)-2-amino-3-[4-(2,4-difluorobenzyloxy)phenyl]-N-hydroxypropionamide] | 78% | 88% | 94% | 95% | – | –
N#Cc1ccc(COc2ccc(C[C@H](N)C(=O)NO)cc2)cc1 [Compound No. 103, (S)-2-amino-3-[4-(4-cyanobenzyloxy)phenyl]-N-hydroxypropionamide] | 89% | 95% | 100% | 97% | – | –
N[C@@H](Cc1cn(Cc2c(F)c(F)c(F)c(F)c2F)c2ccccc12)C(=O)NO [Compound No. 104, (S)-2-amino-3-(1-pentafluorophenylmethyl-1H-indol-3-yl)-N-hydroxypropionamide] | 95% | 97% | 94% | 100% | 81.9 ± 2.1 % trapping | 66.5 ± 2.4 % trapping
CCCCCn1cc(C[C@H](N)C(=O)NO)c2ccccc21 [Compound No. 109, (S)-2-amino-3-(1-pentyl-1H-indol-3-yl)-N-hydroxypropionamide] | 104% | 105% | 104% | 103% | – | –
CCCCCn1cc(C[C@@H](N)C(=O)NO)c2ccccc21 [Compound No. 110, (R)-2-amino-3-(1-pentyl-1H-indol-3-yl)-N-hydroxypropionamide] | 96% | 103% | 101% | 101% | – | –
